Assay results taken from ChEMBL document CHEMBL1124141, “(+/-)-9-Amino-1,2,3,4-tetrahydroacridin-1-ol. A potential Alzheimer's disease therapeutic of low toxicity” (J Med Chem, 1988).
pIC50: −log10 of the molar value.

Legend:
Acetylcholinesterase = target: T1, Acetylcholinesterase (Rattus norvegicus, UniProt P37136); assay: In vitro inhibitory activity against acetylcholinesterase using rat striatal preparations
T1 sequence (P37136 whole entry): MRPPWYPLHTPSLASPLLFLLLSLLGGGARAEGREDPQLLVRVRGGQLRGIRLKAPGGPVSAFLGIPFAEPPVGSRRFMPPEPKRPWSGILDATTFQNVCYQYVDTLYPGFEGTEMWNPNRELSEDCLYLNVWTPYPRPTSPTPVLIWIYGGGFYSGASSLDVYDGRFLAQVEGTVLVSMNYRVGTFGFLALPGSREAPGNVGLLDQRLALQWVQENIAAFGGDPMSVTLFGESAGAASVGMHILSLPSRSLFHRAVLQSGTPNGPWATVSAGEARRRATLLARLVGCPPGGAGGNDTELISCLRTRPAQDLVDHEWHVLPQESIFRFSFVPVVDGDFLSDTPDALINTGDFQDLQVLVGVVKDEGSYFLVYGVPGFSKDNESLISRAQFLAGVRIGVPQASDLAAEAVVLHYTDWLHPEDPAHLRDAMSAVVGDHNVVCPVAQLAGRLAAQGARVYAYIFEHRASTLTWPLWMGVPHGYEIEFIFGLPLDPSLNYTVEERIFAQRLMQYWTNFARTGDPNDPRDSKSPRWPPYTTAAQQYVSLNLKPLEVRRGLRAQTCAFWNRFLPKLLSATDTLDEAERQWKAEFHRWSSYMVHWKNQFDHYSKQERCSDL

[1] = Acute toxicity in mice was determined after oral administration; assay type: organism-based; conditions: mouse, in vivo
Mus musculus = organism: Mus musculus; conditions: dose 0.63 mg/kg; route subcutaneous
Description: Reversal of scopolamine-induced memory impairment in mice, after subcutaneous administration of 0.63 mg/kg

Nc1c2c(nc3ccccc13)CCCC2O.O=C(O)/C=C\C(=O)O (stereo not drawn) [VELNACRINE MALEATE]
pIC50 (Acetylcholinesterase): 5.32 | LD50 [1]: 136 mg/kg | Reversal (Mus musculus): 33%
